Entries after “also recorded” stand apart in the source; their conditions may differ.
Tests used:
Format in all cases: cell-based, human
[1] = system: PCNA, MKI67 and survivin gene expression in HepG2 cells; test: RT-PCR gene expression analysis, HepG2; details: 72 h, degraded and tamoxifen at IC50, undegraded at 2000 μg mL^−1
Experimental: Reverse transcription polymerase chain reaction (RT-PCR) was used to analyze the presence of transcribed mRNA for cell proliferation gene marker. […] The extracted RNA was dissolved in DEPC-treated water. The RNA concentration and sample purity was determined using spectrophotometer (Bio Photometer plus, Eppendorf). Two steps RT-PCR were conducted where 1 μg of total RNA was used in the first strand cDNA synthesis using RevertAid First Strand cDNA Synthesis Kit (ThermoScientific, USA). Subsequent PCR reaction was done utilizing Mastercyler Gradient (Eppendorf, Germany). The expression of cell proliferation markers, e.g. PCNA, MKI67 and BIRC5 or known as survivin were analyzed with GAPDH gene acting as the endogenous control. […] PCR amplification were under the following conditions: initial denaturation at 95°C for 2 min, denaturation at 95°C for 1 min, primer annealing as stated in Table 1, extension at 72°C for 45 second, and final extension at 72°C for 5 min. […] The separated DNA fragments were visualized by ethidium bromide staining and photographed using the Alpha Imaging System (Alpha Innotech, San Leandro, CA, USA) under UV transillumination.

HepG2 cells [2] = test: Acridine orange-ethidium bromide (AO/EtBr) staining, HepG2; details: 72 h; degraded k-carrageenan
Experimental: After the cells were harvested by trypsinisation, they were washed with PBS. A 25 μL sample of cells was stained with 10 μL of a mixture (1:1) of acridine orange and ethidium bromide solution. The concentration of AO/EtBr are […] in 1× PBS. After staining, the cells were viewed under a fluorescence microscope at 200× magnification (Leica DM 2500).

HepG2 cells [3] = test: Morphological observation under an inverted microscope, HepG2; details: 72 h; degraded and TAM at 72 h IC50, undegraded at highest concentration
Experimental: (§1) Approximately 2×10^5 cells were seeded in 2 mL of culture medium in 6-well plates (BD Labware, England) and incubated with 5% CO2 at 37°C for 24 h. The cells were then treated with degraded FGKC, DKC and CGKC at the appropriate concentrations to produce 50% cell viability at 72 hours as pre-determined by the MTT assay. For undegraded carrageenan, the highest concentration with longest treatment period (72 hours) was used to test on the cells. […] The morphology of the treated cells was observed under an inverted microscope at 200× magnification. The observed morphology was compared to the morphology of untreated cells.

Fa2N-4 cells = test: Morphological observation under an inverted microscope, Fa2N-4; details: 72 h; degraded and TAM at 72 h IC50, undegraded at highest concentration
Experimental: as §1

FHs 74 Int cells = test: Morphological observation under an inverted microscope, FHs 74 Int; details: 72 h; degraded and TAM at 72 h IC50, undegraded at highest concentration
Experimental: as §1

HepG2 cells [4] = test: DNA fragmentation by agarose gel electrophoresis, HepG2; details: 1% agarose gel
Experimental: Caco-2 and HepG2 cells treated with degraded FGKC, DKC and CGKC were lysed with lysis buffer (10 mM Tris–HCl, 5 mM EDTA, […], 0.2% SDS) and incubated at 60°C for 5 min. The RNA in each sample was digested with 10 μL of RNase at 37°C for 1 hour, and proteinase K (more than 3 U uL^−1) was added before incubating at 50°C for an additional 1.5 h. NaCl (5 M) was then added, and the samples were incubated on ice for 5 min to precipitate the protein. The cells were centrifuged for 15 min at highest speed at 4°C, after which supernatant was collected, and an equal volume of isopropanol was added to precipitate the DNA. Then, each sample was centrifuged again at 10,000 g for 10 min at 4°C. Supernatants were discarded, and the pellets were washed with 70% cold ethanol. The DNA sample was left to dry at room temperature before adding 1× TE buffer. Electrophoresis was carried out in a 1.0% (w/v) agarose gel for 1.5 h at 70 V. The gel was examined under UV transillumination following ethidium bromide staining to determine the extent of apoptotic DNA fragmentation.

## CC/C(=C(\c1ccccc1)c1ccc(OCCN(C)C)cc1)c1ccccc1 [TAM, Tamoxifen]
[1]
  MKI67 gene expression, HepG2: lower than control; also recorded: undetectably low
  PCNA gene expression, HepG2: lower than control
  survivin gene expression, HepG2: lower than control; also recorded: not expressed
HepG2 cells [2]
  Mode of cell death by AO/EtBr staining, HepG2: showed apoptosis
HepG2 cells [3]
  Cell morphology before staining, HepG2: cell shrinkage
Fa2N-4 cells
  Cell morphology before staining, Fa2N-4: cell shrinkage
FHs 74 Int cells
  Cell morphology before staining, FHs 74 Int: cell shrinkage
HepG2 cells [4]
  DNA fragmentation (DNA ladder), HepG2: fragmented
